Experimental data as given in patent US20100168102A9, “Amide Derivatives as Kinase Inhibitors” (Devgen NV, priority 2005, published 2010).

Columns and labels:
PKC epsilon = target: T1, PKC epsilon (Homo sapiens, UniProt Q02156); assay: Biochemical assay for PKC epsilon (fluorescence polarization, Protein Kinase C Assay Kit, Red); details: read-out: IC50 μM PKCε
T1 construct: purchased Invitrogen P2282
T1 sequence (Q02156 1-737): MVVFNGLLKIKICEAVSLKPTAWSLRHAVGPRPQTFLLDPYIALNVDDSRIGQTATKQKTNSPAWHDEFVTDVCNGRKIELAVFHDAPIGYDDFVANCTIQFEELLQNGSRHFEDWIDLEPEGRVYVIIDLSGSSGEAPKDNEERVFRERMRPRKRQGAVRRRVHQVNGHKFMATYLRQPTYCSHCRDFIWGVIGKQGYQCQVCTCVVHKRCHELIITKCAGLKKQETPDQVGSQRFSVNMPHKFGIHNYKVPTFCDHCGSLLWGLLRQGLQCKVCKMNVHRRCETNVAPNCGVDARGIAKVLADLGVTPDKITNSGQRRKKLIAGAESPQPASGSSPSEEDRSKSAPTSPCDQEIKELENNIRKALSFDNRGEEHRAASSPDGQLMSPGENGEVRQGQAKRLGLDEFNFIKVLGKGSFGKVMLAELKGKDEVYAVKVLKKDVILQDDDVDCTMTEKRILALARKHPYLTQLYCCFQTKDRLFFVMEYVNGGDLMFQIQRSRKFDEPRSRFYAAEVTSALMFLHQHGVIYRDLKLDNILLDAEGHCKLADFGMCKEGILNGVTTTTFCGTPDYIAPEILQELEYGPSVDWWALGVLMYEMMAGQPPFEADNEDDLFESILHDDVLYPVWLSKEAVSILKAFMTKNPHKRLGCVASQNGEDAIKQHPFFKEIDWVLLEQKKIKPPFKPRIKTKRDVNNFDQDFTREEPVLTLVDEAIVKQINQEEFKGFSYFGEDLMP
Summary of the method: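 Read-out was fluorescence-polarization competition between phosphorylated substrate and a rhodamine PKC tracer for an anti-phosphoserine antibody, added with EDTA stop after an 80 min room-temperature kinase reaction with ATP and protein substrate (Mg2+/Ca2+ buffer). Enzyme (10 ng/ml final) was preincubated with compound for 30 min.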

human ROCKα/ROCKII mix = target: T2, human ROCKα/ROCKII mix (Homo sapiens, UniProt O75116); assay: Biochemical assay for ROCK (fluorescence polarization, ROCK IMAP Kit)
T2 construct: purchased Upstate Biotechnology 14-451
T2 sequence (O75116 11-552 limits assumed): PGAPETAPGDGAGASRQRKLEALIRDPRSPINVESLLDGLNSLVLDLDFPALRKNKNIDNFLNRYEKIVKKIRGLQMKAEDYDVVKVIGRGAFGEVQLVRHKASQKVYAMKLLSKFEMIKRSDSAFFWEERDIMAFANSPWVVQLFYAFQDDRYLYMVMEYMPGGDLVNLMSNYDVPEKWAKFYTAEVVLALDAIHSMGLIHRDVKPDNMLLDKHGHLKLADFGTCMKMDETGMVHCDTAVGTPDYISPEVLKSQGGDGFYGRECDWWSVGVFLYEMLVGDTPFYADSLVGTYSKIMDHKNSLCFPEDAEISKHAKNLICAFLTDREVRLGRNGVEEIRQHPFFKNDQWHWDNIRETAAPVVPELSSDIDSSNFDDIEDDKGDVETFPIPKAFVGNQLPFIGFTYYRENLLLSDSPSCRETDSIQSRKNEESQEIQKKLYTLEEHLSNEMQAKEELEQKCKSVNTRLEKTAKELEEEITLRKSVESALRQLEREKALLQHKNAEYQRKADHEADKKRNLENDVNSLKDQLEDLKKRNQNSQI

Question: Which results are given for NC(CNC(=S)Nc1ccccc1)c1ccc(C(=O)Nc2ccncc2)cc1 (stereo not shown) [Compound 11, 4-[1-amino-2-(3-phenyl-thioureido)-ethyl]-N-pyridin-4-yl-benzamide]?
Answer: IC50 (PKC epsilon): 0.5 to 5 µM; IC50 (human ROCKα/ROCKII mix): 0.05 to 0.5 µM

Question: What does the source list for Cc1ccccc1NC(=S)NCC(N)c1ccc(C(=O)Nc2ccncc2)cc1 (stereo not shown) [Compound 12, 4-[1-amino-2-(3-o-tolyl-thioureido)-ethyl]-N-pyridin-4-yl-benzamide]?
Answer: IC50 (PKC epsilon): 0.05 to 0.5 µM; IC50 (human ROCKα/ROCKII mix): 0.5 to 5 µM

Question: What does the source list for NC(CNC(=S)Nc1ccc(Cl)cc1)c1ccc(C(=O)Nc2ccncc2)cc1 (stereo not shown) [Compound 13, 4-{1-amino-2-[3-(4-chloro-phenyl)-thioureido]-ethyl}-N-pyridin-4-yl-benzamide]?
Answer: IC50 (PKC epsilon): 0.05 to 0.5 µM; IC50 (human ROCKα/ROCKII mix): 0.05 to 0.5 µM

Question: For COc1ccc(NC(=S)NCC(N)c2ccc(C(=O)Nc3ccncc3)cc2)cc1 (stereo not shown) [Compound 14, 4-{1-amino-2-[3-(4-methoxy-phenyl)-thioureido]-ethyl}-N-pyridin-4-yl-benzamide], which IC50 (PKC epsilon) is on record?
Answer: Its IC50 is 0.5 to 5 µM.

Question: And the IC50 (human ROCKα/ROCKII mix)?
Answer: Its IC50 is 0.5 to 5 µM.

Question: With NC(CNC(=S)Nc1ccc(OC(F)(F)F)cc1)c1ccc(C(=O)Nc2ccncc2)cc1 (stereo not shown) [Compound 15, 4-{1-amino-2-[3-(4-trifluoromethoxy-phenyl)-thioureido]-ethyl}-N-pyridin-4-yl-benzamide] as the compound, how does the IC50 (PKC epsilon) read?
Answer: The IC50 was 5 to 50 µM.

Question: What about the IC50 (human ROCKα/ROCKII mix) of the same compound?
Answer: Its IC50 is 0.5 to 5 µM.

Question: Which IC50 (PKC epsilon) does the source give for NC(CNC(=S)Nc1ccc(C(F)(F)F)cc1)c1ccc(C(=O)Nc2ccncc2)cc1 (stereo not shown) [Compound 16, 4-{1-amino-2-[3-(4-trifluoromethyl-phenyl)-thioureido]-ethyl}-N-pyridin-4-yl-benzamide] here?
Answer: The IC50 was 0.5 to 5 µM.

Question: And the IC50 (human ROCKα/ROCKII mix)?
Answer: Its IC50 is 0.5 to 5 µM.

Question: NC(CNC(=S)Nc1cccc2ccccc12)c1ccc(C(=O)Nc2ccncc2)cc1 (stereo not shown) [Compound 17, 4-[1-amino-2-(3-naphtalen-1-yl-thioureido)-ethyl]-N-pyridin-4-yl-benzamide] was tested. Which IC50 (PKC epsilon) did it give?
Answer: Its IC50 is 0.05 to 0.5 µM.

Question: What about the IC50 (human ROCKα/ROCKII mix) of the same compound?
Answer: The IC50 was 0.05 to 0.5 µM.

Question: What does the source list for CC(C)(C)c1ccc(NC(=S)NCC(N)c2ccc(C(=O)Nc3ccncc3)cc2)cc1 (stereo not shown) [Compound 18, 4-{1-amino-2-[3-(4-tert-butyl-phenyl)-thioureido]-ethyl}-N-pyridin-4-yl-benzamide]?
Answer: IC50 (PKC epsilon): 5 to 50 µM; IC50 (human ROCKα/ROCKII mix): 0.5 to 5 µM

Question: With NC(CNC(=O)Nc1ccccc1F)c1ccc(C(=O)Nc2ccncc2)cc1 (stereo not shown) [Compound 20, 4-{1-amino-2-[3-(2-fluoro-phenyl)-ureido]-ethyl}-N-pyridin-4-yl-benzamide] as the compound, how does the IC50 (PKC epsilon) read?
Answer: Its IC50 is 0.5 to 5 µM.

Question: And the IC50 (human ROCKα/ROCKII mix)?
Answer: The IC50 was 0.05 to 0.5 µM.

Question: What does the source list for CN(C)c1ccc(NC(=O)NCC(N)c2ccc(C(=O)Nc3ccncc3)cc2)cc1 (stereo not shown) [Compound 21, 4-{1-amino-2-[3-(4-dimethylamino-phenyl)-ureido]-ethyl}-N-pyridin-4-yl-benzamide]?
Answer: IC50 (PKC epsilon): 0.5 to 5 µM; IC50 (human ROCKα/ROCKII mix): 0.05 to 0.5 µM

Question: With NC(CNC(=O)Nc1ccc(-c2ccccc2)cc1)c1ccc(C(=O)Nc2ccncc2)cc1 (stereo not shown) [Compound 22, 4-[1-amino-2-(3-biphenyl-4-yl-ureido)-ethyl]-N-pyridin-4-yl-benzamide] as the compound, how does the IC50 (PKC epsilon) read?
Answer: Its IC50 is 0.5 to 5 µM.

Question: What about the IC50 (human ROCKα/ROCKII mix) of the same compound?
Answer: The IC50 was 0.5 to 5 µM.

Question: How did the IC50 (PKC epsilon) turn out when NC(CNC(=O)Nc1ccc2ccccc2c1)c1ccc(C(=O)Nc2ccncc2)cc1 (stereo not shown) [Compound 23, 4-[1-amino-2-(3-naphtalen-2-yl-ureido)-ethyl]-N-pyridin-4-yl-benzamide] was run?
Answer: The IC50 was 0.5 to 5 µM.

Question: And the IC50 (human ROCKα/ROCKII mix)?
Answer: The IC50 was 0.05 to 0.5 µM.

Question: For CC(C)(C)c1ccc(NC(=O)NCC(N)c2ccc(C(=O)Nc3ccncc3)cc2)cc1 (stereo not shown) [Compound 24, 4-{1-amino-2-[3-(4-tert-butyl-phenyl)-ureido]-ethyl}-N-pyridin-4-yl-benzamide], which IC50 (PKC epsilon) is on record?
Answer: The IC50 was 5 to 50 µM.

Question: What about the IC50 (human ROCKα/ROCKII mix) of the same compound?
Answer: Its IC50 is 0.5 to 5 µM.

Question: What does the source list for Cc1ccccc1NC(=O)NCC(N)c1ccc(C(=O)Nc2ccncc2)cc1 (stereo not shown) [Compound 25, 4-[1-amino-2-(3-o-tolyl-ureido)-ethyl]-N-pyridin-4-yl-benzamide]?
Answer: IC50 (PKC epsilon): 0.5 to 5 µM; IC50 (human ROCKα/ROCKII mix): 0.05 to 0.5 µM

Question: Which IC50 (PKC epsilon) does the source give for Cc1cc(Cl)ccc1NC(=O)NCC(N)c1ccc(C(=O)Nc2ccncc2)cc1 (stereo not shown) [Compound 26, 4-{1-amino-2-[3-(4-chloro-2-methyl-phenyl)-ureido]-ethyl}-N-pyridin-4-yl-benzamide] here?
Answer: The IC50 was 0.05 to 0.5 µM.

Question: And the IC50 (human ROCKα/ROCKII mix)?
Answer: Its IC50 is 0.05 to 0.5 µM.

Question: How did the IC50 (PKC epsilon) turn out when NC(CNC(=O)Nc1cccc2ccccc12)c1ccc(C(=O)Nc2ccncc2)cc1 (stereo not shown) [Compound 28, 4-[1-amino-2-(3-naphtalen-1-yl-ureido)-ethyl]-N-pyridin-4-yl-benzamide] was run?
Answer: Its IC50 is 0.5 to 5 µM.

Question: And the IC50 (human ROCKα/ROCKII mix)?
Answer: The IC50 was 0.05 to 0.5 µM.

Question: What does the source list for COc1cccc(NC(=O)NCC(N)c2ccc(C(=O)Nc3ccncc3)cc2)c1 (stereo not shown) [Compound 29, 4-{1-amino-2-[3-(3-methoxy-phenyl)-ureido]-ethyl}-N-pyridin-4-yl-benzamide]?
Answer: IC50 (PKC epsilon): 0.5 to 5 µM; IC50 (human ROCKα/ROCKII mix): 0.05 to 0.5 µM
